How the values were obtained:
[1] = biological target: T1, endogenous human transferrin receptor (Homo sapiens, UniProt P02786); assay: Metabolic labelling with [3H] palmitate, endogenous transferrin receptor; format: cell-based; conditions: 1 µM
T1 construct: endogenous in cells; host or cells: HEK293T

STING [2] = biological target: T2, STING (Mus musculus, UniProt Q3TBT3); assay: Metabolic labelling with [3H] palmitate, Flag-STING in HEK293T cells; format: cell-based; set-up: expressed in transfected cells; host or cells: HEK293T; conditions: HEK293T expressing Flag-STING; 1 µM; CMA 2 h
T2 sequence (Q3TBT3 1-378): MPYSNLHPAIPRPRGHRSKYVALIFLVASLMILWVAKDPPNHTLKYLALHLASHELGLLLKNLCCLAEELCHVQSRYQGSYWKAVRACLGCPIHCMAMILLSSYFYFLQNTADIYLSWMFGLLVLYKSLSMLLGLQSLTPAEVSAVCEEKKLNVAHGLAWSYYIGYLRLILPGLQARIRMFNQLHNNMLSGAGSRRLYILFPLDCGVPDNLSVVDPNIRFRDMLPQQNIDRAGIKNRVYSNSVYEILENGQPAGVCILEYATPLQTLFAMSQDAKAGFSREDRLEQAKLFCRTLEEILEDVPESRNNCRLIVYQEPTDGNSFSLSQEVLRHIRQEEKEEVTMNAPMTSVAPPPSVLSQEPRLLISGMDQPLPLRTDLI
Experimental: (§1) Reporter activity was measured 16 h after compound treatment. A nonlinear regression analysis was performed. […] Circles indicate substitutes compared to C-176. d, e, Chemical compounds from (c) were tested at 0.5 µM for inhibitory activity in HEK293T cells transfected with STING (e) or RIG-I (f) in conjunction with IFN-• luciferase reporter, respectively. b, e, f, Values of inhibitor-treated cells were normalized to DMSO-treated cells. […] Cytokine levels were normalized to DMSO-treated control cells. A nonlinear regression analysis was performed for cGAMP stimulation. b, c, BMDMs were pre-treated with C-178 (0.25 µM) and stimulated with cGAMP, cyclic di-GMP, CMA, 90mer dsDNA or LPS for 3 h. The induction of Ifnb1 mRNA levels was assessed by RT-qPCR. d, Heatmaps of RNA sequencing analysis of BMDMs treated with DMSO or CMA and with or without addition of C-178. […] Reporter activity was measured 16 h after transfection and values were normalized to DMSO-treated control cells. c, BMDMs were treated with C-178 (0.25 µM) for 1 h, washed or left untreated and after an additional hour stimulated with cGAMP. […] Flag-STING was immunoprecipitated from whole cell lysate and analysed by autoradiography. In parallel, cell lysates were analysed by immunoblotting for p-TBK1 and STING. d, HEK293T cells expressing STING were treated as indicated (C-178 (1 µM)) and stimulated with CMA for 1.5 h. […]

RIG-I = biological target: T3, RIG-I (Homo sapiens, UniProt O95786); assay: IFN-beta luciferase reporter in HEK293T cells transfected with RIG-I (counter-screen); format: cell-based; conditions: 0.01-5µM
T3 construct: expressed in transfected cells; host or cells: HEK293T
T3 sequence (O95786 1-925): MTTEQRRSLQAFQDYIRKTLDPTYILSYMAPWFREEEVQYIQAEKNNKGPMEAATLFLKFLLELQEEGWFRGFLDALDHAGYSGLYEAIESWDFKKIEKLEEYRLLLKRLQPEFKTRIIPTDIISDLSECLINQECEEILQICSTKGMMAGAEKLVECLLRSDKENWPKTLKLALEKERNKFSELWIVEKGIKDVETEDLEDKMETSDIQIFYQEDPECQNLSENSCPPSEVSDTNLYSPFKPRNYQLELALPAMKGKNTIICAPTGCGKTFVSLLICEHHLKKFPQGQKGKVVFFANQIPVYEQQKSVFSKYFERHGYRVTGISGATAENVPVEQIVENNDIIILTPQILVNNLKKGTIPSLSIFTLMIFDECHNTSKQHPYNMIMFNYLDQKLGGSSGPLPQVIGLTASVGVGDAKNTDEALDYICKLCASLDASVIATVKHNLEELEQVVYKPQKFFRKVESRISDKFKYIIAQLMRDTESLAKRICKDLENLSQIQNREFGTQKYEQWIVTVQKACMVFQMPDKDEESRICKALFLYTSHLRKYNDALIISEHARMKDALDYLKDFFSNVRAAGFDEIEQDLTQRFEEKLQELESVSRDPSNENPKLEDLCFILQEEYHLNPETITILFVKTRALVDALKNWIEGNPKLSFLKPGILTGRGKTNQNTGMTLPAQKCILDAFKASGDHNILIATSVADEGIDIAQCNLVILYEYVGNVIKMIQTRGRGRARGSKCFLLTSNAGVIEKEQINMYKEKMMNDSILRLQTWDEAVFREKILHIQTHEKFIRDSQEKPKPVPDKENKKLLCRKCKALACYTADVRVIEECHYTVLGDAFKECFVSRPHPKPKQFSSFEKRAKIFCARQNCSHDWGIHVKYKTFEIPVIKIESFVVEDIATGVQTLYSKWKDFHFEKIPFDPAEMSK
Experimental: as §1

STING [3] = biological target: T2, STING; assay: CMA-induced serum cytokines in mice; format: in vivo, C57BL/6 mice; set-up: tissue Jackson Laboratories 000664; host or cells: whole animal, C57BL/6J mice; conditions: pre-treated 1 h or 4 h before i.p. CMA; serum 4 h later
STING [4] = biological target: T2, STING; assay: Flag immunoprecipitation, recruitment of TBK1 to STING; format: cell-based; set-up: expressed in transfected cells; host or cells: HEK293T; conditions: HEK293T expressing Flag-STING; 1 µM; CMA 2 h

T1 sequence (P02786 whole entry): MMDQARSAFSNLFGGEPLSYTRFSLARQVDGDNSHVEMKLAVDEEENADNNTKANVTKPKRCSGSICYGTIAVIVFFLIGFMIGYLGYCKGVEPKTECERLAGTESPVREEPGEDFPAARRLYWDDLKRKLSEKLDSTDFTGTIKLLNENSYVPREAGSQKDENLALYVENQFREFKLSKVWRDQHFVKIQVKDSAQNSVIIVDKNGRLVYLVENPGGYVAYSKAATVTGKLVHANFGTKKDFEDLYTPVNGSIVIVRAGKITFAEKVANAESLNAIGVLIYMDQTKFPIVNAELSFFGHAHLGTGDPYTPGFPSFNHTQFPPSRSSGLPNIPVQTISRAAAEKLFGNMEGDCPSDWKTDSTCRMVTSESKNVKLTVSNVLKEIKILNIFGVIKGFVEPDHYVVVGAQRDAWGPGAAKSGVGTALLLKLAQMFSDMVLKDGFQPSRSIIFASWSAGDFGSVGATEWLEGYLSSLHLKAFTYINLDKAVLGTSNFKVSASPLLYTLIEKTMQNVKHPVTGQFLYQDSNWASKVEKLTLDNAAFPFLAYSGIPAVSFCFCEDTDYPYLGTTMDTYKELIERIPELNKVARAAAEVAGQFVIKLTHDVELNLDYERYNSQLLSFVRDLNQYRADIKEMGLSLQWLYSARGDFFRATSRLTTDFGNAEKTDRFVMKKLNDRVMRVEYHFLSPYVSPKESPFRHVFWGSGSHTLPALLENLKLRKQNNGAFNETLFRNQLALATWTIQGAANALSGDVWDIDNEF

Structure (SMILES): O=C(Nc1ccc(I)cc1)c1ccc([N+](=O)[O-])o1 [C-176, N-(4-iodophenyl)-5-nitro-2-furamide]
- [^3H] palmitate labelling of the endogenous transferrin receptor [1]: neither C-178 nor C-176 affected
- [^3H] palmitate labelling of STING (STING [2]): inhibited
- RIG-I-driven IFN induction (RIG-I): neither RIG-I nor TBK1-driven IFN induction was affected
- increase in serum concentration of IL-6 (STING [3]): completely abrogated
- increase in serum concentration of type I IFNs (STING [3]): completely abrogated
- recruitment of TBK1 (STING [4]): block
- serum concentration of type I IFNs (Trex1 KO mice; TREX1 KO mice, compared to vehicle, 11 days): significant decrease
- histological analysis of the heart (Trex1 KO mice; TREX1 KO mice, 11 days): decreased cellularity
- overt toxicity (weight changes) (Trex1 KO mice; mouse, in vivo): no signs of overt toxicity

From patent EP3502102A1, “STING INHIBITORS” (ECOLE POLYTECHNIQUE FEDERALE DE LAUSANNE (EPFL), priority 2017, dated 2019)
